# Assay results reported in patent US20240050950A1, “GRADIENT-BASED MICROFLUIDIC CIRCUIT, DEVICE, AND METHOD FOR PERFORMING AN ASSAY” (priority 2020, published 2024).
# Like-named read-outs stand apart in the source and are kept apart here.
# Key:
# [1] = cited from earlier work
# [2] = test system: E. coli LF82; assay: MVM2 antimicrobial R/S profile, Crohn's disease clinical isolate; assay type: cell-based; conditions: MVM2 platform, 0.1-100 μg/mL, FIG. 9F
# [3] = test system: E. coli 541-15; assay type: cell-based
# Procedure: To perform a small-molecule-based biological assay in the MVM^2 platform, four main steps to load the reagents are followed. Step-i involves loading a suspension of the biological species (often with a fluorescent chemical indicator) into the MVM^2 platform so that it is uniformly distributed throughout (see FIG. 6C(i) and FIGS. 11A-D for more details; this step mainly takes ˜3-5 min). In step-ii, small-molecule solutions at C0, 0.1 C0, and 0.01 C0 concentrations are loaded into the high, medium, and low positive main-channels, respectively, which diffuse into the corresponding microchambers through the connected side-channels (see FIG. 6C(ii) and FIGS. 12A-D for more details; this step mainly takes as equal as the small-molecule loading time).
# Resazurin (5 wt %) was also added to the bacterial suspension to allow monitoring of the bacterial cell metabolism through an irreversible resazurin-resorufin enzymatic reduction reaction (i.e., with increasing bacterial growth, the higher resazurin reduction results in greater fluorescent intensity).
# To further confirm these findings based on the bacterial cell metabolism obtained from resazurin reduction, the red fluorescent intensities were correlated with the green fluorescence directly associated with the GFP-labeled bacterial growth in the corresponding microchambers (FIG. 9A and FIG. 9B). […] Moreover, the gold standard broth microdilution technique (measuring the bacterial cell density—OD600—vs. the incubation time) was used to validate the MVM^2 microfluidic device functionality (FIG. 9E).
# Similarly, bacterial cell metabolism and growth using the resazurin reduction assay was probed and changes in the number of GFP-labeled bacteria during the assay was monitored, as shown in FIGS. 29A-B and FIGS. 30A-B, respectively.
# [4] = test system: E. coli 541-15; assay: Gold standard broth microdilution test (OD600 growth curves); assay type: cell-based
# Procedure: Bacteria culture medium, strains, growth, and broth microdilution test. Non-selective Mueller-Hinton (“MET”) culture medium was used for all bacterial culture. In detail, a colony of bacteria pre-cultured on an LB agar plate (Corning, NY) was taken from a freshly streaked plate and suspended into 3 mL of MEI broth, and cultured at 37° C. overnight (˜12 h). The concentration of bacterial suspension was adjusted using a UV-Vis spectrophotometer (NanoDrop, Thermo-Fisher; Wilmington, DE). To do this, the overnight culture medium was diluted by 10-fold serial dilutions in non-selective MEI culture medium to find the appropriate final concentration (1×10^6 CFU/mL) for the antimicrobial susceptibility testing assay.
# The gold standard broth microdilution test was performed by preparing the antibiotic solutions at their final concentrations from a stock solution of each examined antibiotic. A fresh 200 μL volume of each antibiotic solution (prepared in MEI culture medium) was pipetted into each microwell of a 96 MicroWell plate. […] Standardized growth curve analysis was performed using a Bioscreen C automated plate reader (Growth Curves USA, NJ) by measuring OD600. […]
# [5] = test system: wild-type S. cerevisiae strain (DBY12000); assay: Sugar test in MVM2 platform, 10 h yeast culture; assay type: cell-based, Saccharomyces cerevisiae; conditions: 0.007-7%
# Procedure: Yeast culture medium, strains, and growth. Yeast cell growth and standard laboratory manipulations were performed as described (Guthrie and Fink, “Guide to Yeast Genetics and Molecular and Cellular Biology,” Methods in Enzymol. Part C 351 Gulf Professional Publishing (2002), which is hereby incorporated by reference in its entirety). All media used was either minimal medium (YNB; 0.67% yeast nitrogen base without amino acids plus 2% indicated carbon sources) or rich medium (YP; 2% bacto peptone, 1% yeast extract, 2% indicated carbon sources). Additionally, for fluorescence microscopy, low-fluorescence medium was used (standard minimal medium with 2% glucose, except YNB is prepared without riboflavin or folic acid to reduce background fluorescence) (Sheff and Thorn, “Optimized Cassettes for Fluorescent Protein Tagging in Saccharomyces cerevisiae,” Yeast 21:661-670 (2004), which is hereby incorporated by reference in its entirety). The yeast strains used in this study were DBY12000 and DBY12549. DBY12000 is a wild-type yeast strain (i.e., WT) with a genotype of MATa prototrophic HAP1^+ derivative of FY4. […]
# Wild-type vs. Glucose (outcome: not sensitive): In FIGS. 37A-D and FIG. 38, the WT yeast strain exposed with glucose and fructose, respectively. The yeast growth was monitored for any “yeast/sugar” pair within 10 h culture at two time points (t=0 and 10 h). […]
# [6] = test system: WT strain; conditions: reported elsewhere; cited from earlier work
# [7] = test system: yrKHK S. cerevisiae yeast strain (DBY12549); assay type: cell-based, Saccharomyces cerevisiae; conditions: MVM2 platform
# Procedure: Yeast culture medium, strains, and growth. Yeast cell growth and standard laboratory manipulations were performed as described (Guthrie and Fink, “Guide to Yeast Genetics and Molecular and Cellular Biology,” Methods in Enzymol. Part C 351 Gulf Professional Publishing (2002), which is hereby incorporated by reference in its entirety). All media used was either minimal medium (YNB; 0.67% yeast nitrogen base without amino acids plus 2% indicated carbon sources) or rich medium (YP; 2% bacto peptone, 1% yeast extract, 2% indicated carbon sources). Additionally, for fluorescence microscopy, low-fluorescence medium was used (standard minimal medium with 2% glucose, except YNB is prepared without riboflavin or folic acid to reduce background fluorescence) (Sheff and Thorn, “Optimized Cassettes for Fluorescent Protein Tagging in Saccharomyces cerevisiae,” Yeast 21:661-670 (2004), which is hereby incorporated by reference in its entirety). The yeast strains used in this study were DBY12000 and DBY12549. DBY12000 is a wild-type yeast strain (i.e., WT) with a genotype of MATa prototrophic HAP1^+ derivative of FY4. DBY12549 or yrKHK is the mutant of the wild-type yeast strain, which is sensitive to fructose and has a genotype of MATa HAP1^+ can1Δ::TDH3pr-yrKHK.
# Then, as an example, the platform was used to study recessive human metabolic diseases, specifically measuring sugar-phosphate toxicity. […]. The data obtained using the MVM^2 platform precisely pinpointed the binary ‘Yes/No’ sensitivity response of the yrKHK strain to fructose (Yes) and glucose (No), as shown in FIGS. 35A-C and FIGS. 36A-C, respectively.
# In this case, the functionality and validity of the MVM^2 platform was used to test for these known “eukaryote cells/sugars” pairs. Consequently, sugars (fructose and glucose) were chosen as the small molecules to show the feasibility of testing small molecules on eukaryotic cells in the MVM^2 platform. A wild-type S. cerevisiae, DBY12000, yeast strain (namely, WT) and its genetically modified DBY12549 mutant (called yrKHK) were chosen.. […]
# [8] = test system: yrKHK strain; conditions: reported elsewhere; cited from earlier work
# [9] = test system: E. coli; assay: MVM2 antimicrobial R/S profile, bovine mastitis E. coli isolate; assay type: cell-based; conditions: MVM2 platform, 0.1-100 μg/mL, FIG. 32
# From the text: Bovine with mastitis disease was also used to test the MVM^2 platform for deciphering their antimicrobial resistant/susceptibility profile. These antibiotics were chosen to investigate the most common and important antibiotics' mechanisms of action, including the disruption of bacterial cell wall and membrane synthesis, binding to RNA/DNA and interrupting nucleic acid replication, and inhibition of protein synthesis by binding to ribosome. FIG. 32 contains the following information: (i) the type of bacteria and tested antibiotic can be found at the left and right sides, respectively; (ii) each row includes 37 squares, as labeled at the top and have been categorized in 4 different categories—first square representing the microchamber as negative control (labeled with “N”), and every next twelve squares as respectively representing low, medium, and high positive ranges of antibiotic concentrations; (iii) the low, medium, and high ranges are included the concentration ranges of 0.1-1, 1-10, and 10-100 μg/mL; (iv) there are three types of squares: dark red, dark pink or light pink. […] The dark pink squares also show the microchambers which antimicrobial susceptibility was monitored at different trials. […]
# [10] = test system: E. coli, S. aureus, S. uberis, and K. pneumoniae; assay: MVM2 antimicrobial R/S profile, bovine mastitis clinical isolates; assay type: cell-based; conditions: MVM2 platform, FIG. 32
# From the text: Bovine with mastitis disease was also used to test the MVM^2 platform for deciphering their antimicrobial resistant/susceptibility profile. These antibiotics were chosen to investigate the most common and important antibiotics' mechanisms of action, including the disruption of bacterial cell wall and membrane synthesis, binding to RNA/DNA and interrupting nucleic acid replication, and inhibition of protein synthesis by binding to ribosome. FIG. 32 contains the following information: (i) the type of bacteria and tested antibiotic can be found at the left and right sides, respectively; (ii) each row includes 37 squares, as labeled at the top and have been categorized in 4 different categories—first square representing the microchamber as negative control (labeled with “N”), and every next twelve squares as respectively representing low, medium, and high positive ranges of antibiotic concentrations; (iii) the low, medium, and high ranges are included the concentration ranges of 0.1-1, 1-10, and 10-100 μg/mL; (iv) there are three types of squares: dark red, dark pink or light pink. If bacteria is susceptible to a specific antibiotic (e.g., E. coli/cefuroxime pair, see FIG. 32), below MIC (shown by dark pink color), bacteria can survive and grow causing more resazurin reduction (shown by dark red). At concentrations greater than the MIC, the bacterial growth stopped as shown by light pink color. The dark pink squares also show the microchambers which antimicrobial susceptibility was monitored at different trials. […].
# [11] = test system: E. coli LF82, E. faecalis 44, and K. pneumoniae 578; assay: MVM2 antimicrobial R/S profile, isolates from ileal mucosa of human patients with Crohn's disease; assay type: cell-based; conditions: MVM2 platform, FIG. 9F
# [12] = Table 1, antimicrobial agents/drugs
compound,measurement,setting,value
CC1(C)S[C@@H]2[C@H](NC(=O)[C@H](N)c3ccccc3)C(=O)N2[C@H]1C(=O)O [D-(−)-α-Aminobenzylpenicillin],Molar volume,[1]; [12],239.3 ± 5.0 cm^3
same,susceptibility/resistance outcome,[2],resistance
same,susceptibility/resistance outcome,"[3]; MVM2 platform, 0.1-100 μg/mL, 4 h",resistance
same,susceptibility/resistance outcome,[4],resistance
O=C(CO)[C@@H](O)[C@H](O)[C@H](O)CO [D-fructose],Molar volume,"[1]; Table 3, antifungal drugs and other molecules",113.3 cm^3
same,outcome (sensitivity),[5],not sensitive
same,sensitivity/resistance,[6],resistant
same,binary Yes/No sensitivity response,[7]; 0.007-7 wt %,Yes
same,critical sensitivity concentration,[7]; 10 h,1.13 wt %
same,concentration range within which yeast growth is stopped,"[7]; microchambers R8-R12, 10 h",0.7-1.113 wt %
same,sensitivity/resistance,[8],sensitive
CCC[C@@H]1C[C@@H](C(=O)N[C@@H]([C@H]2O[C@H](SC)[C@H](O)[C@@H](O)[C@H]2O)[C@@H](C)O)N(C)C1 [Lincomycin],Molar volume,[1]; [12],313.2 ± 5.0 cm^3
same,susceptibility/resistance outcome,[9],resistance
same,effectiveness among tested antibiotics,[10],not effective
CCn1cc(C(=O)O)c(=O)c2ccc(C)nc21 [Nalidixic acid],effectiveness among tested antibiotics,[10],most effective
CO/N=C(\C(=O)N[C@@H]1C(=O)N2C(C(=O)O)=C(COC(N)=O)CS[C@H]12)c1ccco1 [cefuroxime],susceptibility/resistance outcome,[9],susceptible
same,effectiveness among tested antibiotics,[10],most effective
Gentamicin,effectiveness among tested antibiotics,[11],most effective
same,susceptibility/resistance outcome,[2],susceptible
same,susceptibility/resistance outcome,[3],susceptible
same,MIC,"[3]; MVM2 platform, 4 h at 37° C., n=5",2.82 ± 0.68 µg/mL
same,effectiveness among tested antibiotics,[10],most effective
same,MIC,[4]; n=5,3 ± 2 µg/mL
